# According to patent US4880807A, “Nicotinoylpiperazines useful for treatment of convulsions” (Institut De Recherches Chimiques et Biologiques Appliquees …, priority 1987, dated 1989):
# Legend:
# [1] = test system: convulsions induced by supra maximal electroshock (MCE); assay: animal or person
# Protocol: (§1) The anticonvulsant properties were investigated on male mice, thirty minutes after the oral administration of the substances to be studied, by the induction of convulsive seizures.
# These seizures are caused either by the intraperitoneal injection of pentetrazole (125 mg/kg) or by electrical stimulation of the cornea (supra maximal electroshock, abbreviated to MCE).
# [2] = test system: male mice; assay: oral toxicity in mice (LD50, mortality over 14 days); details: per os, male mice; repeated in Table IV; 20160 min
# Protocol: (§2) The toxicity of the products to be studied was investigated by the oral administration, using an esophageal tube, of each of the said products to male mice with a body weight of 18 to 22 g, divided into groups each containing 10 to 20 animals. The mortality was recorded over a 14-day period.
# [3] = as above; details: mouse, in vivo, po
# Protocol: as §2
# [4] = test system: convulsions induced by pentetrazole; assay: animal or person
# Text: as §1
# [5] = test system: male mice; assay: in vivo; type: in vivo; details: TD50 per os/ED50 per os
# Text: (§3) The animals (divided into groups each containing ten male mice per dose and per product) are installed on the rod and their fall is observed over the next two minutes.
# [6] = in vivo; type: in vivo; details: mouse, in vivo, po; per os, male mice, Rota-rod 30 min after administration; dose causing 50% of animals to fall; read-out: TD50 (50% neurotoxic dose)
# Text: as §3
compound,measurement,setting,value
"CCCC(CCC)C(=O)[O-].[Na+] [VALP, sodium valproate, reference compound]",Therapeutic index MCE (LD50/ED50),"[1]; LD50 per os/ED50 per os, MCE convulsions",4.0
same,ED50,"[1]; Mus musculus, po, 0.5 h, read-out: ED50 in respect of convulsions induced by MCE",242 mg/kg
same,LD50,[2],977 mg/kg
same,LD50 at 336 h,[3],977 mg/kg
same,Therapeutic index PTZ (LD50/ED50),"[4]; LD50 per os/ED50 per os, PTZ convulsions",4.0
same,ED50,"[4]; Mus musculus, po, 0.5 h, read-out: ED50 in respect of convulsions induced by PTZ",244 mg/kg
same,Protection index MCE (TD50/ED50),[5]; MCE convulsions,2.8
same,Protection index PTZ (TD50/ED50),[5]; PTZ convulsions,2.7
same,TD50 at 0.5 h,[6],670 mg/kg
